Assay results taken from patent publication US8933230B2, “Phosphorus-containing group-substituted quinoline, its preparation process, medical composition containing the compounds and application” (priority 2011, dated 2015).

Key:
Assay in all cases: KinomeScan kinase panel
Assay type in all cases: binding
EPHA2 = target: T1, EPHA2 (Homo sapiens, UniProt P29317)
T1 construct: purchased DiscoveRx Corporation (KinomeScan)
How it was run: (§1)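 Compound is added at 1000 nM to each assay of the KinomeScan 442-kinase panel. Inhibitory effect is then recorded per kinase.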

ERK3 = target: T2, ERK3 (Homo sapiens, UniProt Q16659)
T2 construct: purchased DiscoveRx Corporation (KinomeScan)
How it was run: as §1

BMPR1B = target: T3, BMPR1B (Homo sapiens, UniProt O00238)
T3 construct: purchased DiscoveRx Corporation (KinomeScan)
How it was run: as §1

TSSK1B = target: T4, TSSK1B (Homo sapiens, UniProt Q9BXA7)
T4 construct: purchased DiscoveRx Corporation (KinomeScan)
How it was run: as §1

LIMK2 = target: T5, LIMK2 (Homo sapiens, UniProt P53671)
T5 construct: purchased DiscoveRx Corporation (KinomeScan)
T5 sequence (P53671 whole entry): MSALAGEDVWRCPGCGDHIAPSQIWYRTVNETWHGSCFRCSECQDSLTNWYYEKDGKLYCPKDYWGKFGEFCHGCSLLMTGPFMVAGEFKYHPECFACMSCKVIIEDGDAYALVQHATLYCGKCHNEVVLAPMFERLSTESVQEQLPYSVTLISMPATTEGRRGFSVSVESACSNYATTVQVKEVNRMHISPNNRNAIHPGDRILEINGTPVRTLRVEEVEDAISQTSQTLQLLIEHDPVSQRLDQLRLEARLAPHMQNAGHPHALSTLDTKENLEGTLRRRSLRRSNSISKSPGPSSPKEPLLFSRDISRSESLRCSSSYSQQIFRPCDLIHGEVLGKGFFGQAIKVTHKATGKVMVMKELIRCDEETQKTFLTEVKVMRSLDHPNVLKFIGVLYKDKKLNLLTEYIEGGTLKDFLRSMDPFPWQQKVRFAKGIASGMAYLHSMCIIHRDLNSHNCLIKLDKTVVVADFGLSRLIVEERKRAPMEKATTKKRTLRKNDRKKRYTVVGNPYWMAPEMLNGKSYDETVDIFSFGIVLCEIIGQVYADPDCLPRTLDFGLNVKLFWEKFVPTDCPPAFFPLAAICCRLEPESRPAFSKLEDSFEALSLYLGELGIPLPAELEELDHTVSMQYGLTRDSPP
How it was run: as §1

[1] = target: T6, RSK1(Kin.Dom.1-N-terminal) (Homo sapiens, UniProt Q15418)
T6 construct: Kin.Dom.1; purchased DiscoveRx Corporation
T6 sequence (Q15418 62-321 limits assumed): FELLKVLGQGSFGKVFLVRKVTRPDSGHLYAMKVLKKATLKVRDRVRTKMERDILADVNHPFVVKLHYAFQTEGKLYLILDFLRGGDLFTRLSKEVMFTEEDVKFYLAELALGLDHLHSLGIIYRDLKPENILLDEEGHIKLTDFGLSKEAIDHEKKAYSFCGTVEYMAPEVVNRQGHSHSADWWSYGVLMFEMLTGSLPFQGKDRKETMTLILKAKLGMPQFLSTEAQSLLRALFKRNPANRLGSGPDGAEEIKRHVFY
How it was run: as §1

PKN2 = target: T7, PKN2 (Homo sapiens, UniProt Q16513)
T7 construct: purchased DiscoveRx Corporation (KinomeScan)
T7 sequence (Q16513 whole entry): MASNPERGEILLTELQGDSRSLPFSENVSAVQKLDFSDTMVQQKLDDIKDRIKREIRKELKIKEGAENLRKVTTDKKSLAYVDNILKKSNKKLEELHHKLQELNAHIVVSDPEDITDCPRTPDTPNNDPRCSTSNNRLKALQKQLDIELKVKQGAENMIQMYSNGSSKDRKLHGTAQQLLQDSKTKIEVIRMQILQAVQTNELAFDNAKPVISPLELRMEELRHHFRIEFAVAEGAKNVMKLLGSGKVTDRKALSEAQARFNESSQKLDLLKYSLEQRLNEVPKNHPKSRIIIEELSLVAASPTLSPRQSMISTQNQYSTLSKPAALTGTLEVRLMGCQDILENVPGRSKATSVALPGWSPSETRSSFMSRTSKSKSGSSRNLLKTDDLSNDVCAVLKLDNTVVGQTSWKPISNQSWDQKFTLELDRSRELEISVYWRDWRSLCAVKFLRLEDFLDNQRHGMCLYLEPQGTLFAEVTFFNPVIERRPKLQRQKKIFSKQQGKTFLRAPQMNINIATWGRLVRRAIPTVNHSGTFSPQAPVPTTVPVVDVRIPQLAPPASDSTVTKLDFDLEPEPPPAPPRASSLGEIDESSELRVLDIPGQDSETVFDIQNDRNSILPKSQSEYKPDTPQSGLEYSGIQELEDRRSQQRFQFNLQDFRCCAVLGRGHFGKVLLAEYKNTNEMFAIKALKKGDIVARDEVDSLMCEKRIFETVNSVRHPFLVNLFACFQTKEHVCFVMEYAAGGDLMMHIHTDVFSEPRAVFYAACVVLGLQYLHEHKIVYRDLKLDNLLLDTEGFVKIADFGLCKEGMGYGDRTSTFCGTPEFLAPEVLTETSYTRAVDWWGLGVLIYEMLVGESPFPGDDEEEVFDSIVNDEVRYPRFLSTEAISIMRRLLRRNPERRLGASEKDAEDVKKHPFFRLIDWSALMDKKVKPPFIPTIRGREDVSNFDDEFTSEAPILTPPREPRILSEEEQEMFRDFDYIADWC
How it was run: as §1

PIK3CA(E545K) = target: T8, PIK3CA(E545K) (Homo sapiens, UniProt P42336, E545K)
T8 construct: purchased DiscoveRx Corporation (KinomeScan)
How it was run: as §1

[2] = target: T9, JAK1(JH2domain-pseudokinase) (Homo sapiens, UniProt P23458)
T9 construct: JAK1(JH2domain-; purchased DiscoveRx Corporation (KinomeScan)
T9 sequence (P23458 583-855 limits assumed): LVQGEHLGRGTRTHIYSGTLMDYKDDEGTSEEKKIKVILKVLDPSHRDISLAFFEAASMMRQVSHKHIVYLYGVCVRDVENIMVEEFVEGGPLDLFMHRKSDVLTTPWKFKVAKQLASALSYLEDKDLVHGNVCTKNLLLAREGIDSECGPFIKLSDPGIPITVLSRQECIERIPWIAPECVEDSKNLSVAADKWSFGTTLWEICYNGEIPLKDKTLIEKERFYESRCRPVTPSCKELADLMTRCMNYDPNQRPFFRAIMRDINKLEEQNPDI
How it was run: as §1

FAK = target: T10, FAK (Homo sapiens, UniProt Q05397)
T10 construct: purchased DiscoveRx Corporation (KinomeScan)
How it was run: as §1

ULK3 = target: T11, ULK3 (Homo sapiens, UniProt Q6PHR2)
T11 construct: purchased DiscoveRx Corporation (KinomeScan service)
How it was run: as §1

CAMK1D = target: T12, CAMK1D (Homo sapiens, UniProt Q8IU85)
T12 construct: purchased DiscoveRx Corporation (KinomeScan)
How it was run: as §1

NEK9 = target: T13, NEK9 (Homo sapiens, UniProt Q8TD19)
T13 construct: purchased DiscoveRx Corporation (KinomeScan panel)
How it was run: as §1

MAPKAPK2 = target: T14, MAPKAPK2 (Homo sapiens, UniProt P49137)
T14 construct: purchased DiscoveRx Corporation (KinomeScan)
How it was run: as §1

EGFR(L861Q) = target: T15, EGFR(L861Q) (Homo sapiens, UniProt P00533, L861Q)
T15 construct: purchased DiscoveRx Corporation (KinomeScan)
How it was run: as §1

TRKC = target: T16, TRKC (Homo sapiens, UniProt Q16288)
T16 construct: purchased DiscoveRx Corporation (KinomeScan)
How it was run: as §1

TRKB = target: T17, TRKB (Homo sapiens, UniProt Q16620)
T17 construct: purchased DiscoveRx Corporation (KinomeScan)
How it was run: as §1

KIT(L576P) = target: T18, KIT(L576P) (Homo sapiens, UniProt P10721, L576P)
T18 construct: purchased DiscoveRx Corporation (KinomeScan)
How it was run: as §1

CDK3 = target: T19, CDK3 (Homo sapiens, UniProt Q00526)
T19 construct: purchased DiscoveRx Corporation (KinomeScan)
How it was run: as §1

KIT = target: T20, KIT (Homo sapiens, UniProt P10721)
T20 construct: purchased DiscoveRx Corporation (KinomeScan)
How it was run: as §1

MST2 = target: T21, MST2 (Homo sapiens, UniProt Q13188)
T21 construct: purchased DiscoveRx Corporation (KinomeScan)
How it was run: as §1

PIM3 = target: T22, PIM3 (Homo sapiens, UniProt Q86V86)
T22 construct: purchased DiscoveRx Corporation (KinomeScan)
How it was run: as §1

ULK1 = target: T23, ULK1 (Homo sapiens, UniProt O75385)
T23 construct: purchased DiscoveRx Corporation (KinomeScan service)
T23 sequence (O75385 whole entry): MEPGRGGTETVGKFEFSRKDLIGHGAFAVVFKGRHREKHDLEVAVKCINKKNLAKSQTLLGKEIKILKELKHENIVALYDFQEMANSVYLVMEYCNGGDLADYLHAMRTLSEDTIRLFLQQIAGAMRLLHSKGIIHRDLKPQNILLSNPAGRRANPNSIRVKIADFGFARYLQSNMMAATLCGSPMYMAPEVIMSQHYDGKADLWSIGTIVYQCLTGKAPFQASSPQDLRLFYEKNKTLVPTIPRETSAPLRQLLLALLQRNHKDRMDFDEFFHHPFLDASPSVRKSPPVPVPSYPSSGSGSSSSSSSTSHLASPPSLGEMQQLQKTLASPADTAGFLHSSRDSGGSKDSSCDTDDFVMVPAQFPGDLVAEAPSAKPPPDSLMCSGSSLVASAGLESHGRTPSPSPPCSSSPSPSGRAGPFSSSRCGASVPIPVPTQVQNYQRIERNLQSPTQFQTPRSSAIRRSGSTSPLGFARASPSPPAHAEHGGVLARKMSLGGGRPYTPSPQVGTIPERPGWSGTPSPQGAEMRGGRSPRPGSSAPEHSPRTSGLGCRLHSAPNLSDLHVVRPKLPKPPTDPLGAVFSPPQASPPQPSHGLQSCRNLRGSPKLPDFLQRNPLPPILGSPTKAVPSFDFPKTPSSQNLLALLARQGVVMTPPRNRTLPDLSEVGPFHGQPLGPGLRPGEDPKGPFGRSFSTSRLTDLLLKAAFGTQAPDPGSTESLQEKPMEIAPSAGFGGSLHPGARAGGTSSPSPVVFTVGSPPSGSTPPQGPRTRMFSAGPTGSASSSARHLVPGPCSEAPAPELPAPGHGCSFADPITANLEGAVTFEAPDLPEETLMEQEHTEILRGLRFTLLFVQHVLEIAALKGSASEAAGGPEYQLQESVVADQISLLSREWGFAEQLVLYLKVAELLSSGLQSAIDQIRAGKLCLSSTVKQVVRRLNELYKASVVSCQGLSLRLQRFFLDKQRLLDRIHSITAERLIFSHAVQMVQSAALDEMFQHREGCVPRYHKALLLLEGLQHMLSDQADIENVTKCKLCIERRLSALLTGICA
How it was run: as §1

PIK3C2G = target: T24, PIK3C2G (Homo sapiens, UniProt O75747)
T24 construct: purchased DiscoveRx Corporation (KinomeScan)
How it was run: as §1

PRKD1 = target: T25, PRKD1 (Homo sapiens, UniProt Q15139)
T25 construct: purchased DiscoveRx Corporation (KinomeScan)
How it was run: as §1

RIOK2 = target: T26, RIOK2 (Homo sapiens, UniProt Q9BVS4)
T26 construct: purchased DiscoveRx Corporation
How it was run: as §1

EPHB1 = target: T27, EPHB1 (Homo sapiens, UniProt P54762)
T27 construct: purchased DiscoveRx Corporation (KinomeScan)
How it was run: as §1

MAP4K5 = target: T28, MAP4K5 (Homo sapiens, UniProt Q9Y4K4)
T28 construct: purchased DiscoveRx Corporation (KinomeScan)
How it was run: as §1

PIK3CA (H1047L) = target: T29, PIK3CA (H1047L) (Homo sapiens, UniProt P42336, H1047L)
T29 construct: purchased DiscoveRx Corporation (KinomeScan)
How it was run: as §1

SRPK1 = target: T30, SRPK1 (Homo sapiens, UniProt Q96SB4)
T30 construct: purchased DiscoveRx Corporation (KinomeScan)
T30 sequence (Q96SB4 whole entry): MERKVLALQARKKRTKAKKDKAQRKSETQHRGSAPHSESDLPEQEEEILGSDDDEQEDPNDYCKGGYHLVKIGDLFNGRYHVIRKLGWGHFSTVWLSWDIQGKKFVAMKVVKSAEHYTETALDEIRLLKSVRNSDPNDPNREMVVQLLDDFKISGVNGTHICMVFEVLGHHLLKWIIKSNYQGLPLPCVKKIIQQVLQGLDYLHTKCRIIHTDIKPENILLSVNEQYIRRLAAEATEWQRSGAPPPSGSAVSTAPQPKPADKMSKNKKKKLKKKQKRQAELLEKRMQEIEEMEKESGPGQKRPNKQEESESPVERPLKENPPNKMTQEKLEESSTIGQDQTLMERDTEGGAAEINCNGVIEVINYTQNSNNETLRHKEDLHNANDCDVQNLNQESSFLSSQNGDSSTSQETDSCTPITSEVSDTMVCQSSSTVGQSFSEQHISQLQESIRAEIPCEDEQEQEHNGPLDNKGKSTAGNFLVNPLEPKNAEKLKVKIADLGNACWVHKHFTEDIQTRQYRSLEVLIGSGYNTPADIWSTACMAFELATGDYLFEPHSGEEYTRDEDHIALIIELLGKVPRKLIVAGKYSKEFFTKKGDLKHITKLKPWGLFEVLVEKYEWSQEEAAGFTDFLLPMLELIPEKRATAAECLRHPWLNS
How it was run: as §1

HIPK2 = target: T31, HIPK2 (Homo sapiens, UniProt Q9H2X6)
T31 construct: purchased DiscoveRx Corporation (KinomeScan)
How it was run: as §1

ANKK1 = target: T32, ANKK1 (Homo sapiens, UniProt Q8NFD2)
T32 construct: purchased DiscoveRx Corporation (KinomeScan)
How it was run: as §1

EPHB2 = target: T33, EPHB2 (Homo sapiens, UniProt P29323)
T33 construct: purchased DiscoveRx Corporation (KinomeScan)
How it was run: as §1

[3] = target: T34, ABL1(F317I)-nonphosphorylated (Homo sapiens, UniProt P00519, F317I)
T34 construct: purchased DiscoveRx Corporation (KinomeScan)
T34 sequence (P00519 whole entry F317I): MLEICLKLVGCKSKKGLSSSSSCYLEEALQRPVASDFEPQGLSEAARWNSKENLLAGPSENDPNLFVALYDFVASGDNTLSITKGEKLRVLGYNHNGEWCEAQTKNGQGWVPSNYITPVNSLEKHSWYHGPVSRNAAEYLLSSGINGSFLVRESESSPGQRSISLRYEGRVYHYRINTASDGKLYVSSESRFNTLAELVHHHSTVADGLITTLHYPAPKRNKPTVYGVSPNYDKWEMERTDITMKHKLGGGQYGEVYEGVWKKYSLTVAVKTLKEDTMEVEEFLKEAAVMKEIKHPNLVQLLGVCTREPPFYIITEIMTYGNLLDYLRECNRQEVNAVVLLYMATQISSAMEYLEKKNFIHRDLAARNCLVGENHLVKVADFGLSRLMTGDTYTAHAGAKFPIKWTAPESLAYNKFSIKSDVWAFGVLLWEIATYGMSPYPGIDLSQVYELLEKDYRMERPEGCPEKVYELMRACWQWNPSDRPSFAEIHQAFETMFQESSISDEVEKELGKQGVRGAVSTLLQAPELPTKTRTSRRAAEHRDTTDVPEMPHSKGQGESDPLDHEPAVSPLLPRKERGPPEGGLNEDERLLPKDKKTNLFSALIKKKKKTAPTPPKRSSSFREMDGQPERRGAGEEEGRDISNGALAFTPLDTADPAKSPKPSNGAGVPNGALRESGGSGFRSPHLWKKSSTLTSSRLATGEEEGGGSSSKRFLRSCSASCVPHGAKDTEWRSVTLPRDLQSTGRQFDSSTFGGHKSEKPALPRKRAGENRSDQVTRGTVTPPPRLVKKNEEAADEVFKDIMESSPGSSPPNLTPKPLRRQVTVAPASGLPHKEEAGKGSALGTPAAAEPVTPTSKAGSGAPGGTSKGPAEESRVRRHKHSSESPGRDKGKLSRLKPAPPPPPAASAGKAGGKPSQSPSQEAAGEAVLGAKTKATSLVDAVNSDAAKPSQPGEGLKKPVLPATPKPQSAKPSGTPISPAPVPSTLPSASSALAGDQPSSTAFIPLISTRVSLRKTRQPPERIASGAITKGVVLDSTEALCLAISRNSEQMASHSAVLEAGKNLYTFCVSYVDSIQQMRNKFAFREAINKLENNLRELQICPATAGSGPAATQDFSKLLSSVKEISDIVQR
How it was run: as §1

[4] = target: T35, ABL1(E255K)-phosphorylated (Homo sapiens, UniProt P00519, E255K)
T35 construct: purchased DiscoveRx Corporation (KinomeScan)
T35 sequence (P00519 whole entry E255K): as the sequence (P00519 whole entry F317I) above, with E255K, I317F counted along it
How it was run: as §1

CCOP(=O)(CN1CCC(COc2cc3nccc(Oc4ccc(NC(=O)C5(C(=O)Nc6ccc(F)cc6)CC5)cc4F)c3cc2OC)CC1)OCC [Example 10, N1-[4-[[7-[[1-(diethoxyphosphorylmethyl)-4-piperidinyl]methoxyl]-6-methoxyl-4-quinolyl]oxyl]-3-fluorophenyl]-N1′-(4-fluorophenyl)cyclopropane-1,1-dicarboxamide]
% Ctrl@1000 nM (EPHA2): 4.8 % Ctrl
% Ctrl@1000 nM (ERK3): 100 % Ctrl
% Ctrl@1000 nM (BMPR1B): 100 % Ctrl
% Ctrl@1000 nM (TSSK1B): 100 % Ctrl
% Ctrl@1000 nM (LIMK2): 100 % Ctrl
% Ctrl@1000 nM [1]: 59 % Ctrl
% Ctrl@1000 nM (PKN2): 2.6 % Ctrl
% Ctrl@1000 nM (PIK3CA(E545K)): 100 % Ctrl
% Ctrl@1000 nM [2]: 100 % Ctrl
% Ctrl@1000 nM (FAK): 51 % Ctrl
% Ctrl@1000 nM (ULK3): 82 % Ctrl
% Ctrl@1000 nM (CAMK1D): 96 % Ctrl
% Ctrl@1000 nM (NEK9): 66 % Ctrl
% Ctrl@1000 nM (MAPKAPK2): 100 % Ctrl
% Ctrl@1000 nM (EGFR(L861Q)): 84 % Ctrl
% Ctrl@1000 nM (TRKC): 2.2 % Ctrl
% Ctrl@1000 nM (TRKB): 4 % Ctrl
% Ctrl@1000 nM (KIT(L576P)): 0 % Ctrl
% Ctrl@1000 nM (CDK3): 100 % Ctrl
% Ctrl@1000 nM (KIT): 0.2 % Ctrl
% Ctrl@1000 nM (MST2): 100 % Ctrl
% Ctrl@1000 nM (PIM3): 67 % Ctrl
% Ctrl@1000 nM (ULK1): 100 % Ctrl
% Ctrl@1000 nM (PIK3C2G): 98 % Ctrl
% Ctrl@1000 nM (PRKD1): 100 % Ctrl
% Ctrl@1000 nM (RIOK2): 100 % Ctrl
% Ctrl@1000 nM (EPHB1): 4.6 % Ctrl
% Ctrl@1000 nM (MAP4K5): 2.8 % Ctrl
% Ctrl@1000 nM (PIK3CA (H1047L)): 100 % Ctrl
% Ctrl@1000 nM (SRPK1): 70 % Ctrl
% Ctrl@1000 nM (HIPK2): 100 % Ctrl
% Ctrl@1000 nM (ANKK1): 100 % Ctrl
% Ctrl@1000 nM (EPHB2): 2.8 % Ctrl
% Ctrl@1000 nM [3]: 42 % Ctrl
% Ctrl@1000 nM [4]: 63 % Ctrl
